# Conditions: buffer; pH 7.4; 200.0 µM
row,Structure (SMILES),solubility kinetic [µg/mL]
1,CCC(Sc1nc2ncnc(N)c2[nH]1)C(=O)O (stereo unspecified),34.1
2,NC(=O)c1cc([N+](=O)[O-])ccc1N1CCN(Cc2ccccc2)CC1,23
3,Cc1cccc(N2CCN(C(=O)c3ccccn3)CC2C)c1 (stereo unspecified),> 44.3
4,COc1ccc(C(=O)Cn2cnc3ccccc3c2=O)cc1,31
5,CCc1cccc(NC(=S)N2CCC(c3ccccc3)C2)c1 (stereo unspecified),4.6
6,O=C(Nc1cc(S(=O)(=O)Nc2ccc(Cl)cc2)ccc1O)c1ccc(F)cc1F,4.2
7,O=C(OCc1ccc(Br)cc1)c1cccnc1,40.5
8,Cc1cccc(-c2noc(CCC(=O)NC3CCCC3)n2)c1,> 44.9
9,Cc1cc(C)[n+](Cc2ccccc2)cc1C(N)=O.[Cl-],> 41.5
10,Cc1cccc(C(=O)OCC(=O)N2CC(C)OC(C)C2)c1C (stereo unspecified),> 45.8
11,COc1ccc(NC(=O)N2CCc3ccccc3C2)cc1OC,> 46.9
12,Brc1ccc(-c2cn3ccccc3n2)cc1,0.8
13,CCCN(C(=O)/C=C/c1ccc(S(=O)(=O)N(CC)CC)cc1)C1CCS(=O)(=O)C1 (stereo unspecified),> 66.4
14,CC(C)CN=CC1=C(O)c2ccccc2C1=O,29.5
15,Cc1ccc(CC2CC(=O)N(c3nc4ccccc4s3)C2=O)cc1 (stereo unspecified),10.3
16,CCn1c(CCl)nc2cc(S(=O)(=O)N3CCOCC3)ccc21,12.9
17,CC(C)C(OC(=O)c1cccs1)C(=O)NCCc1ccccc1 (stereo unspecified),45.8
18,CC(C)=C(NC(=O)c1ccccc1)C(=O)Nc1cccc(C)c1,2.8
19,COc1cccc(OCC(O)CNC(C)c2ccccc2)c1.Cl (stereo unspecified),49.1

row,Structure (SMILES),solubility kinetic [µg/mL]
1,CN1CCN(CCC(=O)Nc2ccc(Br)cc2)CC1,48.5
2,CCOc1ccc(C(=O)N2CCc3ccccc32)cc1,13.3
3,COc1cccc(S(=O)(=O)NCc2ccc(C(=O)N3CCN(C)CC3)cc2)c1,> 60.5
4,COc1ccc(C(=O)Nc2ccc(C(=O)Nc3cccnc3)cc2)cc1,0.6
5,COc1ccc([N+](=O)[O-])cc1Nc1c2ccccc2nc2ccccc12,< 0.2
6,O=C(Cn1c(=O)oc2ccccc21)NCCc1ccccc1Cl,1.5
7,NS(=O)(=O)c1ccc(NC(=O)c2cc(Cl)sc2Cl)cc1,15.4
8,O=c1c2nccnc2[nH]c(=S)n1Cc1ccccc1Cl,> 45.7
9,CCCCOc1ccc(C(=O)NCCC(=O)NCCCC(=O)OCC)cc1,> 56.8
10,COc1ccc(C(CNC(=O)c2ccc3c(c2)CCC3)N(C)C)cc1 (stereo unspecified),> 50.8
11,Cc1cc(C(=O)Nc2cccc([N+](=O)[O-])c2C)cs1,13.6
12,O=C(CSC(=S)N1CCCCC1)Nc1ncc2c(n1)CCCC2=O,11.3
13,CC(Sc1nc2ccccc2[nH]1)C(=O)NC1CCCCC1C (stereo unspecified),14.5
14,CCOc1ccc(CN(C)C(C)C(=O)NCc2ccccc2)cc1 (stereo unspecified),> 49
15,CC(=O)Nc1ccc(S(=O)(=O)Nc2ccc(N3CCCCC3)cc2)cc1,51.9
16,CCOC(=O)c1cc2c(nc1N)CCCC2,24.7
17,CCCCNC(=S)N1CCN(c2ccc(C(C)=O)cc2)CC1,8
18,COc1ccc(NC(=O)Nc2ccc(F)cc2)cn1,> 39.2

# More lines, now with the values ahead:
row,solubility kinetic [µg/mL],Structure (SMILES)
1,5.4,CC(OC(=O)c1ccc(C#N)cc1)C(=O)Nc1ccc(Cl)cn1 (stereo unspecified)
2,> 56.1,O=C(CN1C(=O)C2C3C=CC(C3)C2C1=O)OCC(=O)c1ccc(Cl)cc1 (stereo unspecified)
3,> 46,CC(=O)NCCc1c(C)n(Cc2ccccc2)c2ccccc12
4,> 45.4,Cc1nc(SCC(=O)N2CCNC2=O)c2ccccc2n1
5,> 51.1,CN(c1cccc(NS(=O)(=O)c2ccccc2)c1)S(C)(=O)=O
6,> 40.7,COCCNC(=O)C1Cc2c(ccc3ccccc23)O1 (stereo unspecified)
7,30.5,Cc1cccc(CC(=O)NC2CCCCCC2)c1
8,22.4,COc1cc(Cl)c(C)cc1Nc1ncccn1
9,0.6,N=c1oc2ccccc2cc1C(=O)Nc1ccccc1
10,38.7,CCN(Cc1ccccc1)C(=O)c1c(-c2ccccc2Cl)noc1C
11,7.7,CSc1ccc(CN(C)C(=O)C(c2ccccc2)c2ccccc2)cc1
12,> 25.2,Nc1nc(-c2nonc2N)no1
13,2.5,Cc1ccc(SCCC(=O)Nc2nccs2)cc1
14,> 42.2,CCC(C)NC(=O)CSc1ncnc2sccc12 (stereo unspecified)
15,15.9,CCC(=O)Nc1ccc(C(=O)COC(=O)Cc2ccsc2)cc1
16,4.7,Cc1ccc2[nH]c(CNC(=O)c3ccc(F)cc3)cc2c1
17,1.1,COc1ccc(N2CCN(c3cc(C)c4ccc(C)cc4n3)CC2)cc1
18,> 44,Cc1cc(C)c(-c2c(O)c3ccccc3n(C)c2=O)c(C)c1
19,1.7,CNC(=O)c1cc(C(=O)c2ccc(Cl)cc2)c(Br)[nH]1
20,6.3,O=C(COC(=O)c1cc2ccccc2cc1O)Nc1ccccc1F
21,> 46.1,COc1ccc(OCC(=O)OC(C)CN2CCCCC2)cc1 (stereo unspecified)
22,22.5,O=S1(=O)C=C(SCc2ccc(F)cc2)Nc2ccccc21
23,5.1,N=C1C(c2nc3ccccc3s2)=C(O)CN1C1CCC(O)CC1 (stereo unspecified)
24,> 49.6,O=C(CC1(CC(=O)N2CCOCC2)CCCC1)Nc1ccccc1
25,> 48.1,COc1ccc(OC)c(CNC(=O)C2CCC(=O)N2C(C)C)c1 (stereo unspecified)

row,solubility kinetic [µg/mL],Structure (SMILES)
1,> 44.3,O=C(CSc1nncc2ccccc12)Nc1ccccc1
2,0.3,Cc1ccc2c(c1)c1ncn(Cc3ccc(F)cc3)c(=O)c1n2C
3,23,CN(C)c1cccc(C(=O)NCCCn2ccc3ccccc32)c1
4,1.5,S=C(Nc1ccc(Br)cc1)Nc1ccc2c(c1)OCCO2
5,> 54.6,CSc1ccc(CN(C)C(=O)c2cc(Cl)c3c(c2)OCCO3)cc1
6,1,CCc1ccc2oc(C(=O)Nc3cccnc3)c(C)c2c1
7,> 62.2,CN(CC(=O)Nc1ccc(F)cc1)C(=O)CSc1nnc(Cc2ccccc2)o1
8,1,CC(=O)c1cccc(NC(=S)NC(=O)c2ccccc2C)c1
9,40.5,Cc1nc(NC(=O)C2CCCCC2C(=O)O)sc1C (stereo unspecified)
10,2.6,Cc1ccc(NC(=O)N2CCC(c3ccccc3)C2)cc1C (stereo unspecified)
11,> 53.9,CCc1ccc(S(=O)(=O)N2CCN(C(=O)c3cccnc3)CC2)cc1
12,36.1,O=C(OCC(=O)N1CCCC1)c1ccccc1O
13,1.3,Cc1ccc(C)c(OCC(=O)Nc2ccccc2N2CCCC2)c1
14,> 45.2,COc1ccc(NC(=O)COC(=O)C2CC3C=CC2C3)cc1 (stereo unspecified)
15,35.8,CC(=O)Nc1cccc(NCC(=O)Nc2cc(S(=O)(=O)N3CCCCC3)ccc2Cl)c1
16,< 0.2,CCCCC(=O)N=c1sc2cc([N+](=O)[O-])ccc2n1C
17,< 0.2,CCc1c(C)sc(NC(=S)Nc2nc(C)cc(C)n2)c1C(=O)OC
18,> 44.3,CCCNC(=O)CSc1nnc(-c2ccc(F)cc2)o1
19,> 49.9,CCOC(=O)C1CCN(CCC(=O)Nc2cc(C)cc(C)c2)CC1
20,> 41.3,Cc1ccc(C(=O)NCC(=O)Nc2ccncc2)s1
21,> 46.6,CC(C)Oc1ccccc1C1(c2ccccc2)NC(=O)NC1=O (stereo unspecified)
22,> 47.2,O=C1[C@@H]2CSCN2C(=O)CN1Cc1c(F)cccc1Cl
23,23.9,Cc1cccc(C)c1NC(=O)CNC(=O)COC(=O)c1ccc(Cl)s1
24,12.2,Cc1ccc(NC(=S)Nc2ccc(F)cc2)cc1C
